In brackets after ≈: the same amount, converted by molar mass. *1 amine or outer side, *2 acyl side, *3 side chain or, on linkers, in order; H or OH if unused. Where a SMILES comes first, the peptide text is derived from it. Bridges are numbered along the chain shown (N, C = ends). Roman numbers before positions name the chains, in order. [ ]: non-standard residue; d: D form. Actinocin(1to9) = Cc1c2oc3c(C)ccc(C(=O)[*:2])c3nc-2c(C(=O)[*:1])c(N)c1=O; Pro(4-oxo) = O=C1CN[C@H](C(=O)O)C1; NMeV = CN[C@H](C(=O)O)C(C)C; Sar = CNCC(=O)O

The subject of assay [1] is Mycobacterium tuberculosis. In words: Antibacterial activity against Mycobacterium tuberculosis H37Rv ATCC 27294 incubated for 10 days by GFP based fluorescence assay. The assay is classed as functional. To be noted: H37Rv ATCC 27294, 240 h.
The subject of assay [2] is Staphylococcus aureus. In words: Antibacterial activity against Staphylococcus aureus incubated for 18 hrs. Format: functional.
In assay [3] the test system is Bacillus subtilis. As to the kind of experiment: Antibacterial activity against Bacillus subtilis DSM 347 incubated for 5 hrs by resazurin dye reduction based assay. The assay is classed as functional, organism-based. To be noted: DSM 347, 5 h.
Assay [4] concerns Staphylococcus epidermidis. As to the kind of experiment: Antibacterial activity against Staphylococcus epidermidis DSM 20044 incubated for 5 hrs by resazurin dye reduction based assay. To be noted: DSM 20044, 5 h. The assay is classed as functional, organism-based.
The test system of assay [5] is Enterococcus faecium. In words: Antibacterial activity against Enterococcus faecium CCUG 37832 incubated for 18 hrs by WST1 assay. Format: functional. To be noted: CCUG 37832, 18 h.
In assay [6] the test system is Enterococcus faecium. In words: Antibacterial activity against Enterococcus faecium CTC 492 incubated for 18 hrs by WST1 assay. Format: functional. The note with it: CTC 492, 18 h.
Assay [7] concerns Mycobacterium tuberculosis. In words: Antibacterial activity against Mycobacterium tuberculosis H37Rv ATCC 27294 incubated […]. Format: functional.
The test system of assay [8] is Bacillus subtilis. In words: Antibacterial activity against Bacillus subtilis ATCC […] incubated for 16 hrs. Format: functional.
For assay [9], the system named is Yersinia pseudotuberculosis. As to the kind of experiment: Inhibition of type 3 secretion system protein secretion in Yersinia pseudotuberculosis at 30 ug/ml incubated for 2 hrs by SDS-PAGE and densitometric analysis.
In assay [10] the test system is Bacillus subtilis. As to the kind of experiment: Antibacterial activity against Bacillus subtilis incubated for 24 hrs by standard broth dilution assay. The assay is classed as functional.
For assay [11], the system named is Escherichia coli. As to the kind of experiment: Antibacterial activity against Escherichia coli incubated for 24 hrs by standard broth dilution assay. The assay is classed as functional.
In assay [12] the test system is Pseudomonas aeruginosa. As to the kind of experiment: Antibacterial activity against Pseudomonas aeruginosa incubated for 24 hrs by standard broth dilution assay. The assay is classed as functional.
The test system of assay [13] is Staphylococcus aureus. As to the kind of experiment: Antibacterial activity against Staphylococcus aureus incubated for 24 hrs by standard broth dilution assay. The assay is classed as functional.
Assay [14] can be described thus: Inhibition of Staphylococcus aureus RNA polymerase.
Assay [15] can be described thus: Inhibition of Escherichia coli RNA polymerase.
The test system of assay [16] is Staphylococcus aureus. As to the kind of experiment: Antibacterial activity against Staphylococcus aureus ATCC 25925 by broth microdilution method. The assay is classed as functional.
Assay [17] has as its system Bacillus subtilis. As to the kind of experiment: Antibacterial activity against Bacillus subtilis ATCC 63501 by broth microdilution method. Format: functional.
Assay [18] has as its system Staphylococcus aureus. As to the kind of experiment: Antibacterial activity against drug-resistant Staphylococcus aureus by broth microdilution method. Format: functional.
Assay [19] concerns Pseudomonas aeruginosa. As to the kind of experiment: Antibacterial activity against Pseudomonas aeruginosa ATCC 25916 by broth microdilution method. Format: functional.
Assay [20] has as its system Escherichia coli. As to the kind of experiment: Antibacterial activity against Escherichia coli ATCC 25922 by broth microdilution method. The assay is classed as functional.
Assay [21] has as its system Escherichia coli. In words: Antibacterial activity against drug-resistant Escherichia coli by broth microdilution method. Format: functional.
The test system of assay [22] is Staphylococcus aureus. As to the kind of experiment: Antibacterial activity against methicillin-resistant Staphylococcus aureus. Format: functional.
The test system of assay [23] is Escherichia coli. In words: Antibacterial activity against Escherichia coli. Format: functional.
In assay [24] the test system is Pseudomonas aeruginosa. As to the kind of experiment: Antibacterial activity against Pseudomonas aeruginosa by broth dilution assay. The assay is classed as functional.
A short description of assay [25]: Antibacterial activity Bacillus pumilus against by broth dilution assay. Format: functional.

Regarding `Cc1c2oc3c(C)ccc(C(=O)N[C@@H]4C(=O)N[C@H](C(C)C)C(=O)N5CCC[C@H]5C(=O)N(C)CC(=O)N(C)[C@@H](C(C)C)C(=O)O[C@@H]4C)c3nc-2c(C(=O)N[C@@H]2C(=O)N[C@H](C(C)C)C(=O)N3CCC[C@H]3C(=O)N(C)CC(=O)N(C)[C@@H](C(C)C)C(=O)O[C@@H]2C)c(N)c1=O` [DACTINOMYCIN] (I: T[dV]P[Sar][NMeV] / II: T[dV]P[Sar][NMeV]; ester I:1-I:C, II:1-II:C; linker I:N-II:N via Actinocin(1to9)), the MIC in assay [1] lay within 1 to 8 µg/mL (≈ 0.797 to 6.37 µM).

Take `C[C@@H]1O[C@](C)(C(=O)O)O[C@H]1/C=C/C=C/C=C/C(=O)O[C@H]1CC[C@H](c2ccc3c(c2O)C(=O)c2ccc4c(c2C3=O)C(=O)[C@H](O)[C@](C)(O)C4)O[C@@H]1C`: the MIC in the assay on Staphylococcus aureus [2] was 2 to 6 µg/mL (≈ 2.85 to 8.54 µM).

On to `CCC(C)CCC[C@H](C(=O)OC)[C@@H](O)c1cccc2nc3c(C(=O)OC)cccc3nc12` (some centres not stated), for which the IC50 (in the assay on Bacillus subtilis [3]; in [4]) was 3.6 µg/mL (≈ 8.21 µM) throughout.

As to `Cc1c2oc3c(C)ccc(C(=O)N[C@@H]4C(=O)N[C@H](C(C)C)C(=O)N5CCC[C@H]5C(=O)N(C)CC(=O)N(C)[C@@H](C(C)C)C(=O)O[C@@H]4C)c3nc-2c(C(=O)N[C@@H]2C(=O)N[C@H](C(C)C)C(=O)N3CC(=O)C[C@H]3C(=O)N(C)CC(=O)N(C)[C@@H](C(C)C)C(=O)O[C@@H]2C)c(N)c1=O` (I: T[dV][Pro(4-oxo)][Sar][NMeV] / II: T[dV]P[Sar][NMeV]; ester I:1-I:C, II:1-II:C; linker I:N-II:N via Actinocin(1to9)), the MIC in [1] lay in the range of 1 to 8 µg/mL (≈ 0.788 to 6.3 µM).

Consider `[O-][n+]1c2cccc(O)c2[n+]([O-])c2cccc(O)c21`, for which the MIC worked out at 0.7 µg/mL (≈ 2.87 µM) in the assay on Enterococcus faecium [5] and 0.35 µg/mL (≈ 1.43 µM) with Enterococcus faecium [6].

Turning to `COC(=O)N[C@H]1[C@@H](C)O[C@@H](O[C@H]2C/C=C(\C)[C@@H]3C=C[C@@H]4[C@@H](O[C@H]5C[C@@H](O[C@H]6C[C@@H](O)[C@@H](O[C@@H]7C[C@@H](O)[C@@H](OC)[C@H](C)O7)[C@H](C)O6)[C@@H](O)[C@H](C)O5)[C@@H](C)C[C@H](C)[C@H]4[C@]3(C)C(=O)C3=C(O)[C@@]4(C[C@@H](C)C(CO)=C[C@H]4/C=C/2C)OC3=O)C[C@]1(C)N`, the MIC lay within 16 to 32 µg/mL (≈ 13.8 to 27.6 µM) in assay [7] and 1.5 to 12 µg/mL (≈ 1.3 to 10.4 µM) in the assay with Bacillus subtilis [8].

`C/C=C(\C)[C@H](O)[C@H](C)/C=C(C)/C=C/C/C(C)=C/Cc1nc(OC)c(OC)c(O)c1C` gave an inhibition in [9] of 65%.

For the compound `CCCCCCCCCCCC(=O)N(CCO)CCO`, the MIC against Bacillus subtilis [10], in the assay with Escherichia coli [11], against Pseudomonas aeruginosa [12] and in the assay with Staphylococcus aureus [13] was 0.02 to 0.13 µg/mL (≈ 0.0696 to 0.452 µM) each time.

On to `C[C@@H]1CCC/C=C/[C@@H]2O[C@@H](C/C=C\C=C\[C@H](O[C@@H]3O[C@H](CO)[C@@H](O)[C@H](O)[C@H]3O)C/C=C/C=C\C(=O)O1)C[C@@H](O)[C@H]2O`, for which the MIC against Bacillus subtilis [10], against Escherichia coli [11], in the assay with Pseudomonas aeruginosa [12] and against Staphylococcus aureus [13] was 0.02 to 0.13 µg/mL (≈ 0.0344 to 0.224 µM) each time.

As for `CC[C@H](C)[C@H]1NC(=O)[C@@H](NC(=O)[C@H](C)[C@H](O)C(C)C)[C@@H](C)OC(=O)[C@H]2NC(=O)[C@@H](C(C)C)NC(=O)[C@@H](Cc3ccccc3)N(C)C(=O)[C@@H](NC1=O)c1ccc(cc1)O[C@H](C)[C@@](O)(CCl)/C=C\C(=O)NCC(=O)O2`, the figures for the IC50 in [14] and in assay [15] were 200 to 4000 nM and 200 to 2000 nM, respectively.

On to `CCC(C)CCC[C@H](C(=O)OC)[C@@H](O)c1cccc2nc3c(C(=O)O)cccc3nc12` (some centres not stated), for which the results for the IC50 (with Bacillus subtilis [3]; in [4]) were 9.1 µg/mL (≈ 21.4 µM) and 6.1 µg/mL (≈ 14.4 µM), respectively.

Turning to `C[C@@H]1C/C=C2\SC[C@@H](NC(=O)c3coc(n3)C[C@@H](O)C[C@H](O)/C=C/C=C/CNC2=O)C(=O)O1`, the MIC in the assay with Staphylococcus aureus [16] is 8 to 16 µg/mL (≈ 16.8 to 33.5 µM); in the assay with Bacillus subtilis [17], 8 to 16 µg/mL (≈ 16.8 to 33.5 µM); with Staphylococcus aureus [18] it was 8 to 16 µg/mL (≈ 16.8 to 33.5 µM); in the assay on Pseudomonas aeruginosa [19], 32 µg/mL (≈ 67 µM); in the assay with Escherichia coli [20], 32 µg/mL (≈ 67 µM); against Escherichia coli [21], 32 µg/mL (≈ 67 µM).

In the case of `C/C(=C\C(=O)OCCCCCCCC(=O)Nc1c2sscc-2[nH]c1=O)C[C@@H]1OC[C@H](C[C@@H]2O[C@H]2[C@@H](C)[C@H](C)O)[C@@H](O)[C@H]1O`, the MIC against Staphylococcus aureus [22] was not above 0.03 µg/mL; against Escherichia coli [23] it was 0.5 µg/mL (≈ 0.78 µM).

In the case of `CCn1cc(C(=O)O)c(=O)c2ccc(C)nc21` [NALIDIXIC ACID], the MIC (against Pseudomonas aeruginosa [24]; in assay [25]) was 1250 to 1500 µg/mL (≈ 5380 to 6460 µM) throughout.

Values taken from ChEMBL document CHEMBL4270488, “Antibacterial Compounds from Marine Bacteria, 2010-2015” (J Nat Prod, 2017).
